# Patent publication US8722667B2, “Compositions and methods for inhibiting the proliferation of cells” (The Regents of the University of Michigan, priority 1999, dated 2014)
# Key:
# [1] = system: isolated rat liver mitochondria; test: ROS production in isolated mitochondria (DCF formation); format: biochemical; conditions: for ROS production: mitochondria in state 4; for increase of the rate of ROS production versus control: state 3 respiration, after the induction phase
# Protocol: Male Long Evans rats are starved overnight and sacrificed by decapitation. Liver samples are homogenized in ice cold buffer A (250 mM sucrose, 10 mM Tris, 0.1 mM EGTA, pH 7.4), and nuclei and cellular debris are pelleted ([…], 830g, 4° C.). Mitochondria are collected by centrifugation (10 min, 15,000g, 4° C.), and the supernatant is collected as the S15 fraction. The mitochondrial pellet is washed three times with buffer B (250 mM sucrose, 10 mM Tris, pH 7.4), and re-suspended in buffer B at 20-30 mg/mL. Mitochondria are diluted (0.5 mg/mL) in buffer C (200 mM sucrose, 10 mM Tris, pH 7.4, 1 mM KH2PO4, 10 μM EGTA, 2.5 μM rotenone, 5 mM succinate) containing 2′,7′-dichlorodihydrofluorescin diacetate (DCFH-DA, 1 μM). For state 3 measurements, ADP (2 mM) is included in the buffer, and prior to the addition of Bz-423, mitochondria are allowed to charge for 2 min. To induce state 4, oligomycin (10 μM) is added to buffer C. […] To detect effects on O2^− and delta ψm, mitochondria are incubated for 15 min at 37° C. in buffer C with vehicle, Bz-423, or CCCP containing DHE (5 μM) or DIOC6(3) (20 nM), and aliquots are removed for analysis by fluorescence microscopy.
# O2^− production by Bz-423 may result from binding to a protein within mitochondria or a target in another compartment that signals mitochondria to generate ROS. To distinguish between these alternatives, isolated rat liver mitochondria were assayed for ROS production by monitoring the oxidation of 2′,7′-dichlorodihydrofluorescin diacetate to of 2′,7′-dichlorofluorescin in the presence and absence of Bz-423. In this assay, the rate of DCF production increased after a lag period during which endogenous reducing equivalents were consumed and the acetate moieties on the probe were hydrolyzed to yield 2′,7′-dichlorodihydrofluorescin, the redox-active species.
# [2] = molecular target: T1, mitochondrial F1F0-ATPase (Bos taurus, UniProt P13621); test: ATPase activity in sub-mitochondrial particles (SMPs); format: biochemical, bovine; conditions: at 80 μM
# T1 construct: from tissue
# From the text: Oligomycin, a macrolide natural product that binds to the mitochondrial F1F0-ATPase, induces a state 3 to 4 transition and generates O2^− like Bz-423. Based on these similarities, it is possible that the F1F0-ATPase is also the molecular target for Bz-423. To test this hypothesis, the effect of Bz-423 on ATPase activity in sub-mitochondrial particles (SMPs) was examined.
# >40 derivatives of Bz-423 were developed to determine the elements on this novel agent required for biological activity. […] The potency of these analogues in cell based assays correlated with the ED50 values in ATPase inhibition experiments using SMPs.
# panel of cells = test: antiproliferation of Bz-Cl against the panel of cells, 3 d; format: cell-based; conditions: after 3 d
# B cells = test: collapse of mitochondrial transmembrane potential, DiOC6(3); format: cell-based; conditions: by 5 hours
# Protocol: To detect O2^−, cells are incubated with DHE (10 μM) for 30 min at 37° C. and are analyzed by flow cytometry to measure ethidium fluorescence. Flow analysis of mitochondrial transmembrane potential (ψm) is conducted by labeling cells with DiOC6(3) (20 nM) for 15 min at 37 degrees C. A positive control for disruption of ψm is established using carbonyl cyanide m-chlorophenylhydrazone (CCCP, 50 μM). Caspase activation assays are performed with FAM-VAD-fluoromethylketone. Processing of the substrate is evaluated by flow cytometry.
# To characterize the death mechanism engaged by Bz-423, intracellular ROS, ΔΨm, cytochrome c release, caspase activation, and DNA fragmentation were measured over time (the results presented are for B cells but do characterize the response in many different cell types). The first event detected after exposure to Bz-423 is an increase in the fraction of cells that stain with dihyroethedium (DHE), a redox-sensitive agent that reacts specifically with O2^−.
# Collapse of ΔΨm was detected using DiOC6(3), a mitochondria-selective potentiometric probe.
# Ramos cells = test: cytotoxicity versus antiproliferation in media with 10% FBS; format: cell-based, human; conditions: >20 μM
# Protocol: Like most 1,4-benzodiazepines, Bz-423 binds strongly to bovine serum albumin (BSA), which reduces the effective concentration of drug free in solution. For example, in tissue culture media containing 10% (v/v) fetal bovine serum (FBS), ca. 99% of the drug is bound to BSA. Therefore, cell culture cytotoxicity assays are conducted in media with 2% FBS to reduce binding to BSA and increase the free [Bz-423]. Under these conditions, the dose response-curve is quite sharp such that there is a limited concentration range at which Bz-423 is only partly effective. Since some benzodiazepines are known to have anti-proliferative properties, the effect of Bz-423 at concentrations <ED50 were carefully analyzed and observed that in addition to inducing apoptosis, Bz-423 prevented cell growth after 3 d in culture. In these low serum conditions, the cytotoxic and anti-proliferative effects overlapped making it difficult to study each effect independently. […] While higher amounts of drug may also block proliferation, it caused apoptosis well before the effects on proliferation could be observed.
# Namalwa ρ0 cells = test: ROS response in cells devoid of mtDNA; format: cell-based
# Protocol: ROS in response to Bz-423. Complexes I-IV in the MRC are partially encoded by mitochondrial DNA (mtDNA). […] Because ethidium bromide is toxic to Ramos cells, these experiments were conducted with Namalwa B cells, another mature B cell line.
# [3] = system: sub-mitochondrial particles; test: redox cycling, NADH and NAD(P)H oxidation assays with sub-mitochondrial particles; format: biochemical; conditions: SMPs
# Protocol: By contrast, replacing the hydroxyl with chlorine or azide, or methylating the phenol effectively abolishes the cytotoxic activity of Bz-423. […] Such agents accept an electron from MRC enzymes and transfer it back to the chain at point of higher reducing potential. This type of ‘redox cycling’ consumes endogenous reducing equivalents (e.g., glutathione) along with […] nucleotides and results in cell death. To distinguish between these alternatives, it was determined whether Bz-423 redox cycles in the presence of sub-mitochondrial particles using standard NADH and NAD(P)H oxidation assays.
# [4] = system: migration inhibitory factor (MIF); test: gene expression profiling of treated cells; format: cell-based, human
# From the text: In response to antigenic or mitogenic stimulation, lymphocytes secrete protein mediators, one of which is named migration inhibitory factor (MIF) for its ability to prevent the migration of macrophages in vitro. MIF may be an anti-tumor agent. In addition, the ability of MIF to prevent the migration of macrophages may be exploited for treating wounds. MIF may alter the immune response to different antigens. MIF links chemical and immunological detoxification systems. MIF was induced approximately 10-fold by Bz-423. Thus, the present invention contemplates the use of MIF as a target of the compounds of the present invention.
# In vitro testing with Ramos cells to determine the changes in gene expression (at the level of mRNA) induced by Bz-423 was performed by culturing cells at a density of 500,000 cells per ml. Solvent control (DMSO, final concentration 0.1% V/V]), Bz-423, or Bz-OMe (10 μM) was added to cells. After 4 h, cells were harvested and RNA prepared using Trizol Reagent (#15596-018, Life Technologies, Rockville, Md.) and the RNeasy Maxi Kit (#75162, Qiagen, Valencia, Calif.) according to manufacturers protocols. Single stranded cDNA was synthesized by reverse transcription using poly (A) RNA present in the starting total RNA sample. […] Hybridization results were quantified using a GeneArray scanner and analysis carried out according to the instructions provided by Affymetrix.
# [5] = system: ornithine decarboxylase (ODC); test: ODC activity in treated cells, conversion of 3H-ornithine to putrescine; format: cell-based; conditions: cells treated 4 h
# Protocol: In these experiments, the conversion of ornithine to putrescine was quantified using ^3H-ornithine. For comparisons, control cells were treated with vehicle control or difluoromethyl ornithine (DFMO), a potent inhibitor of ornithine decarboxylase (like Bz-423, DFMO is a potent anti-proliferative agent). […] The reduction in ODC activity was paralleled by a decrease in ODC protein levels measured under the same conditions.
# As described above, Bz-423 induced apoptosis was signaled by an ROS response that arose from MRC complex III as a result of the state 3 to 4 transition. It was next sought to determine if the ROS response, critical for apoptosis, also mediated these effects on ODC. If the ROS was required for the decrease in ODC activity, it would likewise be implicated as potentially part of the anti-proliferative response to Bz-423. To test this, Ramos cells were treated with Bz-423, DFMO, or vehicle control for 4 h. In parallel, a second group of cells was pre-incubated with MnTBAP to limit the ROS and then cultured with Bz-423, DFMO, and vehicle control.
compound,measurement,setting,value
antimycin A [reference compound],ROS production,[1],active
same,increase of the rate of ROS production versus control,[1],nearly two-fold
CCC(C)N(C)C(=O)c1cc2ccccc2c(-c2ccccc2Cl)n1 (stereo not shown) [PK11195],inhibition of mitochondrial ATPase activity,[2],do not significantly inhibit
CN1C(=O)C(Cc2ccc3ccccc3c2)N=C(c2ccc(Cl)cc2)c2cc(Cl)ccc21 (stereo not shown) [Bz-Cl],ED50 for reduced proliferation compared with Bz-423,panel of cells,comparable ED50 values
CN1C(=O)C(Cc2ccc3ccccc3c2)N=C(c2ccc(O)cc2)c2cc(Cl)ccc21 (stereo not shown) [Bz-423],cells with collapse of ΔΨm,B cells,> 90 % of cells
same,cellular effect observed,Ramos cells,only apoptosis was observed
same,ROS production,[1],does not stimulate ROS
same,increase of the rate of ROS production versus control,[1],nearly two-fold
same,ROS response,Namalwa ρ0 cells,did not result in an ROS response
same,substrate oxidation (redox cycling),[3],does not lead to substrate oxidation
same,induction of MIF,[4],approximately 10 fold
same,effect on ODC activity,[5],significantly reduced ODC activity in a dose-dependant fashion
"CN1C(=O)CN=C(c2ccc(Cl)cc2)c2cc(Cl)ccc21 [4-Cl-diazepam, 4-chlorodiazepam]",inhibition of mitochondrial ATPase activity,[2],do not significantly inhibit
